Laboratory results as given in patent US7144992B2, “Synergistic antimicrobial compositions and methods for reducing biofilm formation” (Kane Biotech Inc., priority 2004, dated 2006).

Assays:
Solubility = settings: for solubility in organic solvents: DMSO, methanol, acetone and acetonitrile
thioredoxin reductase = settings: enzyme crosslinked with the thiol-specific reagent; Donna et al., Prot. Sci. 7:369–375, 1998; cited from earlier work

Row | SMILES | solubility in organic solvents (Solubility) | solubility in water (Solubility) | decrease in thioredoxin reductase activity (thioredoxin reductase) [%]
1 | O=C1C=CC(=O)N1c1ccc2ccc3cccc4ccc1c2c34 [PyrM, N-(1-pyrenyl) maleimide] | soluble in organic solvents | not soluble in water | –
2 | O=C1C=CC(=O)N1c1ccccc1N1C(=O)C=CC1=O [oPDM, N,N′-(1,2-phenylene) dimaleimide] | soluble in organic solvents | not soluble in water | 95
